Measurements reported in ChEMBL document CHEMBL4507269, “Data for DCP probe BAY-386” (2021).

Columns and labels:
[1] = target: Serine/threonine-protein kinase PknB (Mycobacterium tuberculosis) (UniProt P9WI81); settings: Compound concentration 1000.0 nM
[2] = target: Tyrosine-protein kinase SYK (Homo sapiens) (UniProt P43405); settings: Compound concentration 1000.0 nM
[3] = target: 5-hydroxytryptamine receptor 7 (Homo sapiens) (UniProt P34969); settings: Compound concentration 10.0 uM
[4] = target: Ribosomal protein S6 kinase alpha-3 (Homo sapiens) (UniProt P51812); settings: Compound concentration 1000.0 nM
[5] = target: Mitogen-activated protein kinase kinase kinase kinase 2 (Homo sapiens) (UniProt Q12851); settings: Compound concentration 1000.0 nM
[6] = target: T1, Muscarinic acetylcholine receptor M1 (Homo sapiens) (UniProt P11229); settings: Compound concentration 10.0 uM
T1 sequence (whole entry): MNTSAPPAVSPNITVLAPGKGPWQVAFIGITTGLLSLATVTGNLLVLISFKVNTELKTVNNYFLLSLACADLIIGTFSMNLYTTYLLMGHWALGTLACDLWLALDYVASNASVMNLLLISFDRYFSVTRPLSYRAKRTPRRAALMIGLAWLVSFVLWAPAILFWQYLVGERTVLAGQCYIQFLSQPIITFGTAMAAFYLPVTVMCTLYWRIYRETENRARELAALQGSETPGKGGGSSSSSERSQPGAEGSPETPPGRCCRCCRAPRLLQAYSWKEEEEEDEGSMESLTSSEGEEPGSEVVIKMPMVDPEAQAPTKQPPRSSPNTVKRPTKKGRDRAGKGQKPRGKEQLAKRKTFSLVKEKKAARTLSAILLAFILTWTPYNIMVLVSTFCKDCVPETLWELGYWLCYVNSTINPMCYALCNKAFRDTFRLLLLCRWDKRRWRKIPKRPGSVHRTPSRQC

[7] = target: Protein kinase C delta type (Homo sapiens) (UniProt Q05655); settings: Compound concentration 1000.0 nM
[8] = target: Serine/threonine-protein kinase 24 (Homo sapiens) (UniProt Q9Y6E0); settings: Compound concentration 1000.0 nM
[9] = system: Tyrosine-protein kinase ABL1 (Homo sapiens), P00519 [F317I]; settings: Compound concentration 1000.0 nM
[10] = system: Receptor-type tyrosine-protein kinase FLT3 (Homo sapiens), P36888 [UNDEFINED MUTATION]; settings: Compound concentration 1000.0 nM
[11] = system: Phosphatidylinositol 4,5-bisphosphate 3-kinase catalytic subunit alpha isoform (Homo sapiens), P42336 [M1043I]; settings: Compound concentration 1000.0 nM
[12] = target: Receptor tyrosine-protein kinase erbB-3 (Homo sapiens) (UniProt P21860); settings: Compound concentration 1000.0 nM
[13] = target: Histamine H1 receptor (Homo sapiens) (UniProt P35367); settings: Compound concentration 10.0 uM
[14] = target: Receptor tyrosine-protein kinase erbB-2 (Homo sapiens) (UniProt P04626); settings: Compound concentration 1000.0 nM
[15] = system: Tyrosine-protein kinase ABL1 (Homo sapiens), P00519 [Q252H]; settings: Compound concentration 1000.0 nM
[16] = target: Casein kinase I isoform delta (Homo sapiens) (UniProt P48730); settings: Compound concentration 1000.0 nM
[17] = target: Serine/threonine-protein kinase NIM1 (Homo sapiens) (UniProt Q8IY84); settings: Compound concentration 1000.0 nM
[18] = target: Membrane-associated tyrosine- and threonine-specific cdc2-inhibitory kinase (Homo sapiens) (UniProt Q99640); settings: Compound concentration 1000.0 nM
[19] = target: Calcium/calmodulin-dependent protein kinase type 1B (Homo sapiens) (UniProt Q6P2M8); settings: Compound concentration 1000.0 nM
[20] = target: Atypical kinase COQ8B, mitochondrial (Homo sapiens) (UniProt Q96D53); settings: Compound concentration 1000.0 nM
[21] = target: NUAK family SNF1-like kinase 2 (Homo sapiens) (UniProt Q9H093); settings: Compound concentration 1000.0 nM
[22] = target: Death-associated protein kinase 2 (Homo sapiens) (UniProt Q9UIK4); settings: Compound concentration 1000.0 nM
[23] = target: Mitogen-activated protein kinase 4 (Homo sapiens) (UniProt P31152); settings: Compound concentration 1000.0 nM
[24] = target: Cyclin-dependent kinase 11A (Homo sapiens) (UniProt Q9UQ88); settings: Compound concentration 1000.0 nM
[25] = target: Serine/threonine-protein kinase ULK2 (Homo sapiens) (UniProt Q8IYT8); settings: Compound concentration 1000.0 nM
[26] = system: Tyrosine-protein kinase ABL1 (Homo sapiens), P00519 [T315I]; settings: Compound concentration 1000.0 nM
[27] = target: Delta-type opioid receptor (Homo sapiens) (UniProt P41143); settings: Compound concentration 10.0 uM
[28] = target: Casein kinase I isoform gamma-1 (Homo sapiens) (UniProt Q9HCP0); settings: Compound concentration 1000.0 nM
[29] = target: Serine/threonine-protein kinase Chk1 (Homo sapiens) (UniProt O14757); settings: Compound concentration 1000.0 nM
[30] = target: Ribosomal protein S6 kinase alpha-1 (Homo sapiens) (UniProt Q15418); settings: Compound concentration 1000.0 nM
[31] = system: Tyrosine-protein kinase ABL1 (Homo sapiens), P00519 [T315I]; settings: Compound concentration 1000.0 nM; remark: listed apart in the source
[32] = target: T2, Adenosine receptor A2b (Homo sapiens) (UniProt P29275); experiment: A2B (h) Eurofins-Cerep Cellular and Nuclear Receptor Functional Assays; settings: Compound concentration 10.0 uM
T2 sequence (whole entry): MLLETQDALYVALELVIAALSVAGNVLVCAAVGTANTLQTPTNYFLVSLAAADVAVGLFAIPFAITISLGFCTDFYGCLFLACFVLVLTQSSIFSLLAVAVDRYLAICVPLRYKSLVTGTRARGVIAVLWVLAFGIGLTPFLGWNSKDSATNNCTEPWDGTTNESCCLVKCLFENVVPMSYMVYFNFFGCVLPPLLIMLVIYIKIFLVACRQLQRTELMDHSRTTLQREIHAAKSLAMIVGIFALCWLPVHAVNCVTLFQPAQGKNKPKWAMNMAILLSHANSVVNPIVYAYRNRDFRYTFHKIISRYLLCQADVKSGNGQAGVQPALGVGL

Sequence of Receptor tyrosine-protein kinase erbB-2 (Homo sapiens) (P04626 whole entry): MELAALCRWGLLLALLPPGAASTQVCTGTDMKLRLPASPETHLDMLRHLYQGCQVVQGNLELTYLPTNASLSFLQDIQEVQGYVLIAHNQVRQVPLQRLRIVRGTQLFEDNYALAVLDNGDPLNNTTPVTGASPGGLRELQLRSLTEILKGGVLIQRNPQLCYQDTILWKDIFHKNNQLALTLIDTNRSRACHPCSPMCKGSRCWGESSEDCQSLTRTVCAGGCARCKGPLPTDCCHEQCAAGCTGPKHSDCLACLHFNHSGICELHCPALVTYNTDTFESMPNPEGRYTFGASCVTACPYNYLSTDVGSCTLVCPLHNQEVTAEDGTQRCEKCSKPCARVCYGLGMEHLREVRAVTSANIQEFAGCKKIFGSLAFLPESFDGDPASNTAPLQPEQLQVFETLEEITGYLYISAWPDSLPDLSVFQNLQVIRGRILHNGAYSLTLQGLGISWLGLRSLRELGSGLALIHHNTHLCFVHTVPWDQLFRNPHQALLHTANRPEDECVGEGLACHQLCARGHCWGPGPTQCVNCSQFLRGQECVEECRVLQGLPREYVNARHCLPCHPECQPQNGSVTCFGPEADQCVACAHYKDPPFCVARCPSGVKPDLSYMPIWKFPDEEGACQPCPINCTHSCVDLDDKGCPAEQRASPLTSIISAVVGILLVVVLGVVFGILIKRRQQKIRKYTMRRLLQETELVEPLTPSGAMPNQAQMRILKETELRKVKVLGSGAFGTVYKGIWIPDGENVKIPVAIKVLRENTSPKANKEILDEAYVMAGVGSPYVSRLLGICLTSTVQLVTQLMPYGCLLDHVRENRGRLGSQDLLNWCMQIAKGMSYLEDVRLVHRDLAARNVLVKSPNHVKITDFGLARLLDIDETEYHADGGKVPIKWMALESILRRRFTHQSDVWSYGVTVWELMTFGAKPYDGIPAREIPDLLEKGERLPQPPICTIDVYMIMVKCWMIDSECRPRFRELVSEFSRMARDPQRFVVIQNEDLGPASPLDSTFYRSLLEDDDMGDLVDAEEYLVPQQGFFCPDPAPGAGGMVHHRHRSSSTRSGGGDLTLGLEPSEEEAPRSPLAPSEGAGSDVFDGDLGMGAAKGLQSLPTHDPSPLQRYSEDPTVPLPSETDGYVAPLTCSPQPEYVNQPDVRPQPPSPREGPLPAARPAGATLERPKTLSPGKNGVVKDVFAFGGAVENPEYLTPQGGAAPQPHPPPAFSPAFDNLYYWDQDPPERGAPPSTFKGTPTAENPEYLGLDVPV
Sequence of Cyclin-dependent kinase 11A (Homo sapiens) (Q9UQ88 whole entry): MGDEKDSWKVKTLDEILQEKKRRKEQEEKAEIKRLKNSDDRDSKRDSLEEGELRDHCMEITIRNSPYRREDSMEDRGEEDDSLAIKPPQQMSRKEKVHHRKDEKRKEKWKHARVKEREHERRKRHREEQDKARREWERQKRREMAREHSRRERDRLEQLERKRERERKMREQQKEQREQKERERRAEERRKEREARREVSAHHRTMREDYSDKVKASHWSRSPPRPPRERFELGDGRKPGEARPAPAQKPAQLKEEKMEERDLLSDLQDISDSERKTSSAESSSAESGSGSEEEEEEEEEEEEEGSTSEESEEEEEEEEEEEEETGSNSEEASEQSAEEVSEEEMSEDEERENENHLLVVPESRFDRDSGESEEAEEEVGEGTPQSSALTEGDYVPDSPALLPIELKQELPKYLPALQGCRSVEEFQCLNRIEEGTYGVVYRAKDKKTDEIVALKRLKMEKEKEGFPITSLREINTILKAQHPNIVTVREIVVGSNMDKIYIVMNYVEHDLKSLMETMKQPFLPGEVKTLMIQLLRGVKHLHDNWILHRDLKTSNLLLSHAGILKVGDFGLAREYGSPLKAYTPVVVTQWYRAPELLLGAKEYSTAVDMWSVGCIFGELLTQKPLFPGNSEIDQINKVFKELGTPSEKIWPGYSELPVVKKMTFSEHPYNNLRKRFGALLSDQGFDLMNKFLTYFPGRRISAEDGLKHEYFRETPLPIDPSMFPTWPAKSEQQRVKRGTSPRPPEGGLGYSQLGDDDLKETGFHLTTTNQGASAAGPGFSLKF
Sequence of Receptor tyrosine-protein kinase erbB-3 (Homo sapiens) (P21860 whole entry): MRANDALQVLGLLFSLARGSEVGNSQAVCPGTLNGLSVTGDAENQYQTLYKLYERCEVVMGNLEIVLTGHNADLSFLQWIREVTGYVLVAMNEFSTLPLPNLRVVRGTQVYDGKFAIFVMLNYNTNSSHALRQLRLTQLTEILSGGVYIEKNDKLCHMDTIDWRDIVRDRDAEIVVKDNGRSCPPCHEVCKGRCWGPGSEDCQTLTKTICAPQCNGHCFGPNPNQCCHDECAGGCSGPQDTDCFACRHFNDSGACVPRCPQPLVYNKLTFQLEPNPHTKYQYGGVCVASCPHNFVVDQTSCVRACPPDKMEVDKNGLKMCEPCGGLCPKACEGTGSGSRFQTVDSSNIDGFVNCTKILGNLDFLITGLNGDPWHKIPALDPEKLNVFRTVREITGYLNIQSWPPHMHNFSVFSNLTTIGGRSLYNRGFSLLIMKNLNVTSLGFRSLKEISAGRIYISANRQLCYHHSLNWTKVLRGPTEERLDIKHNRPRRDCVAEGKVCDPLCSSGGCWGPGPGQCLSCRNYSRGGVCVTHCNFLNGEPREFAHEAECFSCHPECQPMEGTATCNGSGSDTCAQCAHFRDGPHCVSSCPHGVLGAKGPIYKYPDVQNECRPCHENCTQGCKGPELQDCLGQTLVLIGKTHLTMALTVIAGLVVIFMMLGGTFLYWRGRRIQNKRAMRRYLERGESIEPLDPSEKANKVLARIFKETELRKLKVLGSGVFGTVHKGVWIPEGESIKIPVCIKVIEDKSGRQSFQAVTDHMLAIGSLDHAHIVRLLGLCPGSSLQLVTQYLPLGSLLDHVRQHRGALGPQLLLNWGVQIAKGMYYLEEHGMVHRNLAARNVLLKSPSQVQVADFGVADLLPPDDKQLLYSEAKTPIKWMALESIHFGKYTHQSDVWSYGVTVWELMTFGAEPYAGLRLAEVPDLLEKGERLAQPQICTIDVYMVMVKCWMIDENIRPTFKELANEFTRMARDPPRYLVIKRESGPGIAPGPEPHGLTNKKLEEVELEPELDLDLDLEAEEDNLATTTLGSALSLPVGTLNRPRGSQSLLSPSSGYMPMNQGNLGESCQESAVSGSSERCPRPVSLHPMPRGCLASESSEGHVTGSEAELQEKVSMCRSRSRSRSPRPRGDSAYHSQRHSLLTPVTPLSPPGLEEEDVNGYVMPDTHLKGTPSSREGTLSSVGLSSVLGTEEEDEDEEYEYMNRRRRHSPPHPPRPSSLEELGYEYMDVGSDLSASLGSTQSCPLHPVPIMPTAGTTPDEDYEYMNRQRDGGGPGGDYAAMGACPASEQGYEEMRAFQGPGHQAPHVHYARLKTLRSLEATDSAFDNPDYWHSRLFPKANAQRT
Sequence of Delta-type opioid receptor (Homo sapiens) (P41143 whole entry, canonical isoform): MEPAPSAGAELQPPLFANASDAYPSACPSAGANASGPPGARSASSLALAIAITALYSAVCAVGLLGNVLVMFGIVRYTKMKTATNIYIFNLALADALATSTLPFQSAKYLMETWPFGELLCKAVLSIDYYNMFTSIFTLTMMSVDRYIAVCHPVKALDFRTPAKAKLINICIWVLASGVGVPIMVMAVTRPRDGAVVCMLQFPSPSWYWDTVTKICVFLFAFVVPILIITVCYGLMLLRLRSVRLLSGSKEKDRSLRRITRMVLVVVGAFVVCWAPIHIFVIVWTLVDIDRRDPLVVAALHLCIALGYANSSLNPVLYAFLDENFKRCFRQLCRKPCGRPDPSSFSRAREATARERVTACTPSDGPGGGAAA
Sequence of Death-associated protein kinase 2 (Homo sapiens) (Q9UIK4 whole entry, looked up): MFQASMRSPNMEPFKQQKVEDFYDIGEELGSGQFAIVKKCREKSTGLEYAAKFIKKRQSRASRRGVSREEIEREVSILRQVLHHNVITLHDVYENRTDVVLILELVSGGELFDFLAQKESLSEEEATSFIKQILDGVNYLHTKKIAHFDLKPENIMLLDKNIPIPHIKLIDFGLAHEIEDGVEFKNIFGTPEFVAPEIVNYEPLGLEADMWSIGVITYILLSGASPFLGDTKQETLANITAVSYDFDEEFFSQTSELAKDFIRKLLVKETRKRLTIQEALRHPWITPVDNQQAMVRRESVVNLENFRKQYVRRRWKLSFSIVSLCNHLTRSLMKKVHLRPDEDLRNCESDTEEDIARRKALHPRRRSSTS
Sequence of Casein kinase I isoform delta (Homo sapiens) (P48730 whole entry, looked up, canonical isoform): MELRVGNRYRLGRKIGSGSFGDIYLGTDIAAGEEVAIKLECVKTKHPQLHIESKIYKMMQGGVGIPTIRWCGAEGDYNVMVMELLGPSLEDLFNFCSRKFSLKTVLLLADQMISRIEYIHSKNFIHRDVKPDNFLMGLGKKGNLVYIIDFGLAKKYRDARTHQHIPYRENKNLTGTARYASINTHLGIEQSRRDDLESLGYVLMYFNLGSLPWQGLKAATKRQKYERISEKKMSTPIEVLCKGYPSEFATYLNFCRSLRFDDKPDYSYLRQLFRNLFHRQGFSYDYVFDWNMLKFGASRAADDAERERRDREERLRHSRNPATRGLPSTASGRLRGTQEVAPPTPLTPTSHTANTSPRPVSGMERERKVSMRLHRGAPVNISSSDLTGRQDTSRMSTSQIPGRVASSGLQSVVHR
Sequence of Histamine H1 receptor (Homo sapiens) (P35367 whole entry): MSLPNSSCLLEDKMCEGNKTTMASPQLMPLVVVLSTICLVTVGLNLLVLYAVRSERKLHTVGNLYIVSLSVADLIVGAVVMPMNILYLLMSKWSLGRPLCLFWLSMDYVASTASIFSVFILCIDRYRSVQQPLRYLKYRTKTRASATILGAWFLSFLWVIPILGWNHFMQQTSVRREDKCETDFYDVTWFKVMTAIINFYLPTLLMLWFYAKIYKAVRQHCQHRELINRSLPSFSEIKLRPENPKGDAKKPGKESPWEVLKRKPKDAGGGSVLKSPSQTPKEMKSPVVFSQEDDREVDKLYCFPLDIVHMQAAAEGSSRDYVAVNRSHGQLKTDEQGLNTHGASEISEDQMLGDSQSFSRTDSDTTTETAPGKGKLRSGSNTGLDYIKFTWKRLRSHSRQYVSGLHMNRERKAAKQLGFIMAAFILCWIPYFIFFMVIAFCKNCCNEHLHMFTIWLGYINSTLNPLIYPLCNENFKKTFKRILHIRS

Structure (SMILES)	residual activity [1] [%]	residual activity [2] [%]	inhibition [3] [%]	residual activity [4] [%]	residual activity [5] [%]	inhibition [6] [%]	residual activity [7] [%]	residual activity [8] [%]	residual activity [9] [%]	residual activity [10] [%]	residual activity [11] [%]	residual activity [12] [%]	inhibition [13] [%]	residual activity [14] [%]	residual activity [15] [%]	residual activity [16] [%]	residual activity [17] [%]	residual activity [18] [%]	residual activity [19] [%]	residual activity [20] [%]	further results
Cc1noc([C@H]2C[C@@H](c3ccc(C(F)(F)F)cc3)CN(C(=O)N3CCS(=O)(=O)C3)C2)n1 [BAY-448]	82	96	21.8	100	100	-7.31	100	100	100	100	100	100	11.5	100	100	100	100	100	100	100	residual activity [21]: 100%; residual activity [22]: 100%; residual activity [23]: 100%; residual activity [24]: 100%; residual activity [25]: 100%; residual activity [26]: 69%; inhibition [27]: -0.62%; residual activity [28]: 100%; residual activity [29]: 100%; residual activity [30]: 100%; residual activity [31]: 100%; % Inhibition of Control Agonist Response (Mean n=2) [32]: -8.5%; % of Control Agonist Response (Mean n=2) [32]: 1.5%
O=C(N1CCS(=O)(=O)CC1)N1C[C@H](c2ccc(OC(F)(F)F)cc2)C[C@H](c2nc(C3CC3)no2)C1 [BAY-386]	100	100	-0.77	100	94	2.07	100	97	80	100	100	100	-5.32	100	100	100	93	100	100	73	residual activity [21]: 100%; residual activity [22]: 100%; residual activity [23]: 100%; residual activity [24]: 0%; residual activity [25]: 75%; residual activity [26]: 100%; inhibition [27]: -2.63%; residual activity [28]: 100%; residual activity [29]: 100%; residual activity [30]: 100%; residual activity [31]: 92%; % Inhibition of Control Agonist Response (Mean n=2) [32]: -0.3%; % of Control Agonist Response (Mean n=2) [32]: 3.5%
